{
  "source": "paper PMC5557811",
  "about": "(Scientific Reports, 2017)",
  "key": {"yeast strain Y2HGold": {"system": "yeast strain Y2HGold", "assay": "Bait toxicity test in yeast", "format": "cell-based, Saccharomyces cerevisiae", "settings": "pGBKT7::Mtk vs pGBKT7 empty vector, growth on SDO/–Trp plates; data not shown"}, "Fusarium graminearum [1]": {"system": "Fusarium graminearum", "settings": "in vivo; cited from earlier work"}, "[2]": {"system": "β(1,3)-glucanosyltransferase Gel1", "settings": "cited from earlier work"}, "Fusarium graminearum [3]": {"system": "Fusarium graminearum", "settings": "read-out: IC50 against F. graminearum; cited from earlier work"}, "SdhB": {"system": "SdhB", "format": "binding, Fusarium graminearum"}, "[4]": {"system": "Blumeria graminis f. sp. hordei", "settings": "cited from earlier work", "text": "(§1) Insects are well protected against pathogens by an immunity-related arsenal of effector molecules including antimicrobial peptides (AMPs). Some AMPs are active against a broad spectrum of microbes, whereas the activity of others is restricted to certain types of bacteria or fungi. Insects produce a large number of antifungal peptides to protect them against fungal pathogens and parasites, and these peptides often interact with intracellular targets to inhibit key physiological processes such as DNA and protein synthesis, cell cycle progression and metabolic activity[1]–[3]. AMPs therefore offe ..."}, "Piriformospora indica": {"system": "Piriformospora indica", "settings": "cited from earlier work", "text": "as §1"}, "[5]": {"system": "SDH activity of P. indica mitochondrial SQR (complex II)", "format": "biochemical, Piriformospora indica"}, "[6]": {"system": "SDH activity of F. graminearum mitochondrial SQR (complex II)", "format": "biochemical, Fusarium graminearum", "settings": "absorbance 600 nm, 25 °C"}},
  "note": "“Also recorded” adds a separate entry of the source.",
  "data": [
    {"substance": "metchnikowin (HRHQGPIFDTRPSPFNPNQPRPGPIY; Metchnikowin synthetic; UniProt Q24395 27-52, looked up) [Mtk, 26-residue proline-rich linear antifungal peptide from Drosophila melanogaster; synthetic Mtk from Pepmic used in SDH assay]", "values": [
      {"measurement": "toxicity towards yeast cells", "setting": "yeast strain Y2HGold", "result": "not independently toxic"},
      {"measurement": "antifungal activity when expressed in barley", "setting": "Fusarium graminearum [1]", "result": "acts specifically against"},
      {"measurement": "interference with F. graminearum cell wall biosynthesis by targeting Gel1", "setting": "[2]", "result": "interferes with F. graminearum cell wall biosynthesis"},
      {"measurement": "IC50", "setting": "Fusarium graminearum [3]", "result": 1000, "unit": "nM"},
      {"measurement": "YFP fluorescence of Mtk constructs without a fusion partner (auto-activation)", "setting": "SdhB; Mtk constructs with YFPCempty or YFPNempty, cytoplasm and nucleus", "result": "produced YFP fluorescence in both the cytoplasm and nucleus"},
      {"measurement": "YFP fluorescence on co-expression of Mtk and SdhB", "setting": "SdhB; Nicotiana benthamiana leaves, 3 days after injection, Mtk and SdhB YFP fusions", "result": "did not result in detectable YFP fluorescence"},
      {"measurement": "antifungal activity when expressed in barley", "setting": "[4]", "result": "acts specifically against"},
      {"measurement": "antifungal activity when expressed in barley", "setting": "Piriformospora indica", "result": "inactive"},
      {"measurement": "reduction in mitochondrial SDH activity", "setting": "[5]", "result": "unaffected; also recorded: no reduction was observed; also recorded: did not inhibit"},
      {"measurement": "reduction in mitochondrial SDH activity, significance by concentration", "setting": "[6]; Mtk 2, 1, 0.5, 0.25, 0.12 and 0.06 µM, all concentrations except the lowest, 30 min, vs control without Mtk, means of three independent experiments", "result": "All concentrations except the lowest caused significant reductions"},
      {"measurement": "maximal inhibition of mitochondrial SDH activity", "setting": "[6]; synthetic Mtk, tested at 0.06, 0.12, 0.25, 0.5, 1 and 2 µM, isolated mitochondria, DCIP colorimetric, kinetic 30 min, relative to control (0 µM peptide = 100%), mean of three independent experiments, in triplicate", "result": "up to 52%"}
    ]}
  ]
}
